From patent US20110195896A1 (CASE WESTERN RESERVE UNIVERSITY, priority 2008, published 2011)
Entries after “also recorded” stand apart in the source; their conditions may differ. Like-named read-outs stand apart in the source and are kept apart here.

How the values were obtained:
[1] = molecular target: IGF Type I receptor (IGFR) (Homo sapiens, UniProt P08069); assay: Competitive receptor-binding assay, epitope-tagged IGF Type I receptor
Experimental: (§1) Relative activity may be defined by comparison of the dissociation constants (Keq) governing the hormone-receptor binding reaction.
(§2) Receptor-Binding Assays. […] This assay employs the purified epitope-tagged receptor (IR-A, IR-B, or IGFR) using a microtiter-plate antibody-capture assay as known in the art. The epitope tag consists of three tandem repeats of the FLAG epitope. Microtiter strip plates (Nunc Maxisorb) were incubated overnight at 4° C. with anti-FLAG IgG (100 μl/well of […] in phosphate-buffered saline). Binding data were analyzed by a single-site heterologous competition binding model. A corresponding microtiter plate antibody assay using the epitope-tagged IGF Type I receptor was employed to assess cross-binding of analogues to this homologous receptor.

[2] = molecular target: insulin receptor isoform A (IR-A, HIRA) (Homo sapiens, UniProt P06213); assay: Competitive receptor-binding assay, 125I-insulin tracer, epitope-tagged receptor antibody capture (IR-A); settings: ratio of IR-A to IR-B binding
Experimental: as §1, §2

[3] = molecular target: insulin receptor isoform B (IR-B, HIRB) (Homo sapiens, UniProt P06213); assay: Competitive receptor-binding assay, 125I-insulin tracer, epitope-tagged receptor antibody capture (IR-B); settings: normalized to 100% = binding affinity of wild-type human insulin for IR-A
Experimental: as §1, §2

[4] = molecular target: insulin receptor (Homo sapiens, UniProt P06213); settings: background; cited from earlier work

IGF Type I receptor (IGFR), sequence (P08069 31-736 limits assumed): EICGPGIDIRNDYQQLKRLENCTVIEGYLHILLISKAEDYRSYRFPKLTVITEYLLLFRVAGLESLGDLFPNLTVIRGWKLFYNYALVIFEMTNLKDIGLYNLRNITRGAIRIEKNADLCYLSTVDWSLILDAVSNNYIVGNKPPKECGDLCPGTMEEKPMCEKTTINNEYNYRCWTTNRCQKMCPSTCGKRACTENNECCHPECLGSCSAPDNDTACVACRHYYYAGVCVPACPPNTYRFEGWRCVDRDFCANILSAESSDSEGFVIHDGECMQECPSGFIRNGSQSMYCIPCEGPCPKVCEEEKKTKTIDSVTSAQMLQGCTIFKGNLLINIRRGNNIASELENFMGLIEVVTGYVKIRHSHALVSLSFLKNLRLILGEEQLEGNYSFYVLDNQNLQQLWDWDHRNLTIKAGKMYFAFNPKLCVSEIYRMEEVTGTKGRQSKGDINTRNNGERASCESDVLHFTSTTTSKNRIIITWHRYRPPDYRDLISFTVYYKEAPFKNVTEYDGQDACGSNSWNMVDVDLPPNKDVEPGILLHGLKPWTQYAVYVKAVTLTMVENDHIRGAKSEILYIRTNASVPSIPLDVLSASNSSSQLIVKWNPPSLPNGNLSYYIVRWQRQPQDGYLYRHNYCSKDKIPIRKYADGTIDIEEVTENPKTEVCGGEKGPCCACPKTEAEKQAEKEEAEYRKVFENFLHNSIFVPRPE
IGF Type I receptor (IGFR), sequence (P08069 741-1367 partner limits assumed): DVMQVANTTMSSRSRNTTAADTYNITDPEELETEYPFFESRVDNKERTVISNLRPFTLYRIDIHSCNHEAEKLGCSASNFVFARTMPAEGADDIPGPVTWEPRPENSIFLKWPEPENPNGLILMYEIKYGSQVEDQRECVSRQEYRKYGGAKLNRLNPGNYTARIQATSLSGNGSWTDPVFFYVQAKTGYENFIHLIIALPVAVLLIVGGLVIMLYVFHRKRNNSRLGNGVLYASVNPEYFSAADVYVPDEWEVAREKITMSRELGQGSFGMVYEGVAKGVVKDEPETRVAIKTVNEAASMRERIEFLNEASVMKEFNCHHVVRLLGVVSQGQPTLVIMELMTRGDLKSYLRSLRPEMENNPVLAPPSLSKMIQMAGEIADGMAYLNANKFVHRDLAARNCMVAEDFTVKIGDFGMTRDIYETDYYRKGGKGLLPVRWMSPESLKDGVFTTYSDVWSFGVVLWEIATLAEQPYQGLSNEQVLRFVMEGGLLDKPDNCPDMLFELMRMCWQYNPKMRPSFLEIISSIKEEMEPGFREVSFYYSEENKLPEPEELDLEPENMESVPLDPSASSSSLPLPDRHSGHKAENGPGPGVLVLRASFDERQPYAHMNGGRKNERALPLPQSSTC

## CC[C@H](C)[C@@H]1NC(=O)CNC(=O)[C@H](CCCNC(=N)N)NC(=O)[C@H](CCCNC(=N)N)NC(=O)[C@@H]2CCCN2C(=O)CNC(=O)CNC(=O)CNC(=O)[C@H]([C@@H](C)O)NC(=O)[C@@H]2CCCN2C(=O)[C@H](CC(=O)O)NC(=O)[C@H]([C@@H](C)O)NC(=O)[C@H](Cc2ccc(O)cc2)NC(=O)[C@H](Cc2ccccc2)NC(=O)[C@H](Cc2ccccc2)NC(=O)CNC(=O)[C@H](CCCNC(=N)N)NC(=O)[C@H](CCC(=O)O)NC(=O)CNC(=O)[C@@H]2CSSC[C@@H](C(=O)N[C@@H](CC(N)=O)C(=O)O)NC(=O)[C@H](Cc3ccc(O)cc3)NC(=O)[C@H](CC(N)=O)NC(=O)[C@H](CCC(=O)O)NC(=O)[C@H](CC(C)C)NC(=O)[C@H](CCC(N)=O)NC(=O)[C@H](Cc3ccc(O)cc3)NC(=O)[C@H](CC(C)C)NC(=O)[C@H](CO)NC(=O)[C@@H]3CSSC[C@H](NC(=O)[C@H](CCC(N)=O)NC(=O)[C@H](CCC(=O)O)NC(=O)[C@H](C(C)C)NC1=O)C(=O)N[C@@H](CSSC[C@H](NC(=O)[C@H](CC(C)C)NC(=O)[C@H](Cc1c[nH]cn1)NC(=O)[C@H](CCC(N)=O)NC(=O)[C@H](CC(N)=O)NC(=O)[C@@H](NC(=O)[C@@H](N)Cc1ccccc1)C(C)C)C(=O)NCC(=O)N[C@@H](CO)C(=O)N[C@@H](Cc1c[nH]cn1)C(=O)N[C@@H](CC(C)C)C(=O)N[C@@H](C(C)C)C(=O)N[C@@H](CCC(=O)O)C(=O)N[C@@H](C)C(=O)N[C@@H](CC(C)C)C(=O)N[C@@H](Cc1ccc(O)cc1)C(=O)N[C@@H](CC(C)C)C(=O)N[C@@H](C(C)C)C(=O)N2)C(=O)N[C@@H](Cc1c[nH]cn1)C(=O)N[C@@H](CO)C(=O)N[C@@H]([C@@H](C)CC)C(=O)N3 [[His^A8, Asp^B28, Pro^B29]-SCI]
[1]
  Kd: 27.6 ± 1.18 nM

## Lantus ®
[1]; absolute number relative to IGF-1 (=1)
  IGFR Relative Affinity: 0.015
[1]; absolute number relative to unmodified human insulin (=1)
  IGFR Relative Affinity: 2-3
[1]; read-out: IGFR Kd
  Kd: 3.14 ± 0.44 nM

## insulin-like growth factor II [IGF-II]
[2]
  selectivity / preference for IR-A relative to IR-B: between fourfold and tenfold; also recorded: greater than twofold preference for IR-A
[3]
  RELATIVE AFFINITY INSULIN RECEPTOR Isoform B: 4%
[4]
  affinity for either IR isoform relative to human insulin: < 20%
